Source: PubChem BioAssay (NCI)
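Briefly, cells in 96-well plates were exposed to five compound concentrations for 48 h, and endpoints were estimated by linear interpolation. GI50 = concentration required for 50% inhibition of growth. TGI: total growth inhibition.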

Test system: MDA-MB-468 breast
Experiment: growth of human tumour cells (NCI), 48 h

| SMILES | GI50 | TGI |
| --- | --- | --- |
| C=C(C)C(=O)O[C@H]1C[C@@]2(C)OC(=CC2=O)/C(CO)=C\[C@H]2OC(=O)C(=C)[C@H]12 | 41.6 nM | 127 nM |
| CCN(Cc1ccc(F)cc1)c1ccc(CO)c(C)c1 | 167 nM | 591 nM |
| Cc1ccc(/C=C2\CN(C(=O)C(Cl)Cl)C/C(=C\c3ccc(C)cc3)C2=O)cc1 | 195 nM | 427 nM |
| Brc1ccc2[nH]cc(-c3nc(-c4c[nH]c5ncccc45)cs3)c2c1 | 2660 nM | 10900 nM |
| Cn1nc(-c2ccc(Cl)cc2)nc2c(=O)n(C)c(=O)nc1-2 | 1180 nM | 3350 nM |
| Cc1cc(Nc2nc(-c3cccnc3)nc3ccccc23)n[nH]1 | 1780 nM | 21400 nM |
| CCN1C(=O)N(CC)C2SC(N/N=C/c3ccccc3)=NC21 (stereo not given) | 293 nM |  |
| O=C(O)c1cn(C2CC2)c2cc(N3CCN(C(=O)Nc4nc(-c5ccccc5)cs4)CC3)c(F)cc2c1=O | 563 nM | 6520 nM |
| CCCCCCNC(=O)Oc1ccc(/C(=C(/C)Cc2ccc(OC)cc2)c2ccc(OCCCN(C)C)cc2)cc1 | 16700 nM | 32600 nM |
| COc1ccccc1C1=C(Nc2ccccc2)C(=O)NC1=O | > 10300 nM | > 25000 nM |
| COc1ccc(C(c2ccc(OCCN(C)C)cc2)c2cc3ccccc3c3ccccc23)cc1 (stereo not given) | 1580 nM | 3150 nM |
| Cn1ccnc1C(=O)/C=C/c1ccc(CNC(=O)c2ccc(Cl)cc2)cc1 | 2050 nM | 4750 nM |
| COc1cccc(-c2ccc3c(c2)C2CCN(Cc4ccccc4)C3C2)c1 (stereo not given) | 2890 nM | 16100 nM |
| COc1cc2c(cc1OC)C(Sc1ccc(SC)cc1)c1c(nc(N)c(C#N)c1N)O2 (stereo not given) | 1030 nM | 2620 nM |
| COc1cccc(-c2nn(-c3ccccc3)cc2-c2ccnc(NCCNC(=O)Nc3cccc(C(F)(F)F)c3)c2)c1 | 1700 nM | 3430 nM |
| COc1ccc(-c2ccc(-c3ccc(C(=N)N)nc3)s2)cc1Cl | 1740 nM | 3320 nM |

| SMILES | GI50 | TGI |
| --- | --- | --- |
| O=[N+]([O-])c1ccc(Oc2nc(Nc3ccc(O[C@H]4CO[C@H]5[C@@H]4OC[C@@H]5O)c(Cl)c3)ncc2F)c(Cl)c1 | 1470 nM | 4660 nM |
| Cc1cc2cc3ccc(N(C)C)cc3nc2cc1N | 229 nM | 1260 nM |
| CC(C)N1CCN(Cc2ccc3c(NNC(=O)c4ccccc4)nc4cc(F)ccc4n23)CC1 | 260 nM | 1400 nM |
| CCN1C(=O)CCCc2c1ccc(Nc1ncc(Cl)c(NC3[C@@H](C(N)=O)[C@@H]4C=C[C@H]3C4)n1)c2OC (stereo not given in full) | 1130 nM | 4800 nM |
| O=C(CN1CCN(c2cc3c(cc2F)c(=O)c(C(=O)O)cn3C2CC2)CC1)Nc1nc(-c2ccc(Cl)cc2)cs1 | 3430 nM | 30700 nM |
| NC(=S)n1c(=O)n(-c2cccc(C(F)(F)F)c2)c(=O)c2cc(-c3ccc(F)cc3F)ccc21 | 2010 nM | 5800 nM |
| CCOc1cc(Br)c(C(C)NC(=O)c2cccc(OC)c2)cc1OCC (stereo not given) | 3460 nM | 54700 nM |
| COc1ccc2c(C3(c4cn(C)c5cc(OC)ccc45)C(=O)Nc4ccc(Cl)cc43)cn(C)c2c1 | 2540 nM | 9080 nM |
| COc1cccc(/C=N/NC(=S)NC2CC3CCC2C3)c1O (stereo not given) | 11400 nM | > 100000 nM |
| CN(Cc1cccc(F)c1)c1ccc(CO)c(Cl)c1 | 45.5 nM | 169 nM |
| O=C1c2c(c3c4cc(O)ccc4oc3c3[nH]c4ccccc4c23)C(=O)N1O | 478 nM | 1550 nM |
| CC1=CC(=O)C(C(C)C)=CC1=Nc1cc(Br)c(O)c(Br)c1 | 3700 nM | 15500 nM |
| CC1=C(CN(O)C(N)=O)C2=C(C)C3(CC3)[C@](C)(O)C(=O)C2=C1 | 184 nM | 497 nM |
| COc1cc(NS(C)(=O)=O)ccc1Nc1c2ccccc2nc2ccccc12 | 469 nM [middle of 4 runs] |  |
| C=C1C(=O)O[C@H]2[C@H]1CC/C(COC(=O)CCSCCC(=O)OC/C1=C/CC[C@@]3(C)O[C@H]3[C@H]3OC(=O)C(=C)[C@@H]3CC1)=C\CC[C@@]1(C)O[C@@H]21 | 358 nM | 1500 nM |
